Assay results reported in patent US20230355597A1, “COMPOUNDS, COMPOSITIONS, AND METHODS FOR THE TREATMENT AND PREVENTION OF AVIAN PATHOGENIC E. COLI (APEC)” (OHIO STATE INNOVATION FOUNDATION, priority 2018, published 2023).
Marks after values point to notes of the source that are not given here.

How the values were obtained:
APEC O78 [1] = format: cell-based, avian pathogenic Escherichia coli (APEC); settings: APEC O78, M63 media; cell prints MIC/MBC
APEC O1 = format: cell-based, avian pathogenic Escherichia coli (APEC); settings: APEC O1, M63 media; MIC/MBC
APEC O2 = format: cell-based, avian pathogenic Escherichia coli (APEC); settings: APEC O2, M63 media; MIC/MBC
APEC O8 = format: cell-based, avian pathogenic Escherichia coli (APEC); settings: APEC O8, M63 media; MIC/MBC
APEC O15 = format: cell-based, avian pathogenic Escherichia coli (APEC); settings: APEC O15, M63 media; MIC/MBC
APEC O18 = format: cell-based, avian pathogenic Escherichia coli (APEC); settings: APEC O18, M63 media; MIC/MBC
APEC O35 = format: cell-based, avian pathogenic Escherichia coli (APEC); settings: APEC O35, M63 media; MIC/MBC
APEC O115 = format: cell-based, avian pathogenic Escherichia coli (APEC); settings: APEC O115, M63 media; MIC/MBC
APEC O109 = format: cell-based, avian pathogenic Escherichia coli (APEC); settings: APEC O109, M63 media; MIC/MBC
APEC O78-53 = format: cell-based, avian pathogenic Escherichia coli (APEC); settings: APEC O78-53, M63 media; MIC/MBC
APEC O1-63 = format: cell-based, avian pathogenic Escherichia coli (APEC); settings: APEC O1-63, M63 media; MIC/MBC
APEC O2-211 = format: cell-based, avian pathogenic Escherichia coli (APEC); settings: APEC O2-211, M63 media; MIC/MBC
[2] = tested on: biofilm embedded APEC O78; assay: MBEC High-throughput assay; format: cell-based, avian pathogenic Escherichia coli (APEC); settings: biofilm embedded APEC O78; superscript = multiple of MIC (footnote)
APEC O78 [3] = assay: Confocal microscopy bacterial cytological profiling; format: cell-based, avian pathogenic Escherichia coli (APEC); settings: 2X MBC
Procedure: Confocal and scanning electron microscopy. Confocal microscopy was used for bacterial cytological profiling (BCP) to identify the cellular pathways targeted by SMs as described previously. […] After incubation, treated cultures were centrifuged, washed, and resuspended in 100 μL PBS. […] Cultures were then centrifuged, washed, and resuspended in PBS to 1⁄10th volume of the original cultures.

APEC O78 [4] = assay: Loss of 260/280 nm absorbing materials assay; format: cell-based, avian pathogenic Escherichia coli (APEC); settings: 2X MBC, 1 h, *P<0.05 vs DMSO; for Absorbance 260: 260 nm absorbing material in supernatant; for Absorbance 280: 280 nm absorbing material in supernatant
[5] = Pilot experiment in chickens; format: in vivo, chicken
[6] = tested on: intracellular APEC O78 in Caco-2 cells; assay: Intracellular survival assay (cidal SMs); settings: O78, Caco-2, 6 h treatment; superscript = multiple of MIC
[7] = tested on: intracellular APEC O78 in HD11 cells; assay: Intracellular survival assay (cidal SMs); settings: O78, HD11, 6 h treatment; superscript = multiple of MIC
[8] = tested on: intracellular APEC O78 in THP-1 cells; assay: Intracellular survival assay (cidal SMs); settings: O78, THP-1, 6 h treatment; superscript = multiple of MIC
[9] = tested on: intracellular APEC O2 in Caco-2 cells; assay: Intracellular survival assay (cidal SMs); settings: O2, Caco-2, 6 h treatment; superscript = multiple of MIC
[10] = tested on: intracellular APEC O2 in HD11 cells; assay: Intracellular survival assay (cidal SMs); settings: O2, HD11, 6 h treatment; superscript = multiple of MIC
[11] = tested on: intracellular APEC O2 in THP-1 cells; assay: Intracellular survival assay (cidal SMs); settings: O2, THP-1, 6 h treatment; superscript = multiple of MIC
[12] = tested on: intracellular APEC O1 in Caco-2 cells; assay: Intracellular survival assay (cidal SMs); settings: O1, Caco-2, 6 h treatment; superscript = multiple of MIC
[13] = tested on: intracellular APEC O1 in HD11 cells; assay: Intracellular survival assay (cidal SMs); settings: O1, HD11, 6 h treatment; superscript = multiple of MIC
[14] = tested on: intracellular APEC O1 in THP-1 cells; assay: Intracellular survival assay (cidal SMs); settings: O1, THP-1, 6 h treatment; superscript = multiple of MIC
Rif^r APEC O78 = assay: In vivo efficacy of growth inhibitors in APEC infected broiler chickens

CCCCCCCCCCCCCCCC[n+]1ccn(CC#N)c1 [SM6]
no negative impact: impact on chicken health and performance [5]
1.2 log CFU/g of tissues: reduction of APEC load, Liver (Rif^r APEC O78; vs untreated control) | reduction of APEC load, Lung (Rif^r APEC O78; vs untreated control)
membrane disruptors: cytological profile (confocal, FM4-64 / SYTO-9) (APEC O78 [3])
1.9 log CFU/g of tissues: reduction of APEC load, Kidney (Rif^r APEC O78; vs untreated control)
1.4 logs: reduction of average APEC load in internal organs (Rif^r APEC O78; average of liver, heart, lung and kidney, vs untreated control)
42.86%: reduction of APEC induced mortality (Rif^r APEC O78; oral gavage twice a day, 5 days, untreated mortality (58.34%) normalized to 100%)
3.99*: Absorbance 260 (APEC O78 [4])
1.3 log CFU/g of tissues: reduction of APEC load, Heart (Rif^r APEC O78; vs untreated control)
222.18±54.01: Body weight gain (BWG) (Rif^r APEC O78; weight of live chickens before necropsy minus weight before treatment)
20%: reduction of APEC lesions severity (%), Heart (pericarditis) (Rif^r APEC O78; untreated control = 100%)
25 µM: MBC (APEC O78 [1]) | MBC (APEC O1) | MBC (APEC O2) | MIC (APEC O2) | MBC (APEC O15) | MBC (APEC O18) | MBC (APEC O35) | MBC (APEC O115) | MBC (APEC O78-53) | MBC (APEC O1-63)
12.5^a µM: MBEC [2]
2.69*: Absorbance 280 (APEC O78 [4])
50^c µM: SMs intracellular APEC clearance concentration [6] | SMs intracellular APEC clearance concentration [7] | SMs intracellular APEC clearance concentration [8] | SMs intracellular APEC clearance concentration [10] | SMs intracellular APEC clearance concentration [11]
100^d µM: SMs intracellular APEC clearance concentration [9] | SMs intracellular APEC clearance concentration [12] | SMs intracellular APEC clearance concentration [13] | SMs intracellular APEC clearance concentration [14]
12.5 µM: MIC (APEC O78 [1]) | MIC (APEC O1) | MBC (APEC O8) | MIC (APEC O8) | MIC (APEC O15) | MIC (APEC O18) | MIC (APEC O35) | MIC (APEC O115) | MBC (APEC O109) | MIC (APEC O109) | MIC (APEC O78-53) | MIC (APEC O1-63) | MBC (APEC O2-211) | MIC (APEC O2-211)
33.3%: reduction of APEC lesions severity (%), Lung (lung congestion) (Rif^r APEC O78; untreated control = 100%)
-41.2%: reduction of APEC lesions severity (%), Air-sacs (airsacculitis) (Rif^r APEC O78; untreated control = 100%)
5.4: cumulative lesions score (Rif^r APEC O78; liver, heart, lung and air-sacs, untreated 6.2)

CCCCCCCCCCCCCCCCn1c[n+](C)c2ccccc21.[Br-] [SM5]
12.5 µM: MIC (APEC O78 [1]) | MBC (APEC O1) | MIC (APEC O1) | MIC (APEC O2) | MBC (APEC O8) | MIC (APEC O8) | MBC (APEC O15) | MIC (APEC O15) | MBC (APEC O18) | MIC (APEC O18) | MIC (APEC O35) | MBC (APEC O115) | MIC (APEC O115) | MBC (APEC O109) | MIC (APEC O109) | MBC (APEC O78-53) | MIC (APEC O78-53) | MIC (APEC O1-63) | MBC (APEC O2-211) | MIC (APEC O2-211)
4.00*: Absorbance 260 (APEC O78 [4])
25^c µM: MBEC [2]
100^d µM: SMs intracellular APEC clearance concentration [9] | SMs intracellular APEC clearance concentration [12] | SMs intracellular APEC clearance concentration [13] | SMs intracellular APEC clearance concentration [14]
25 µM: MBC (APEC O78 [1]) | MBC (APEC O2) | MBC (APEC O35) | MBC (APEC O1-63)
membrane disruptors: cytological profile (confocal, FM4-64 / SYTO-9) (APEC O78 [3])
50^c µM: SMs intracellular APEC clearance concentration [6] | SMs intracellular APEC clearance concentration [7] | SMs intracellular APEC clearance concentration [8] | SMs intracellular APEC clearance concentration [10] | SMs intracellular APEC clearance concentration [11]
no negative impact: impact on chicken health and performance [5]
2.67*: Absorbance 280 (APEC O78 [4])
